Laboratory results published in patent US20260344670A1, “BIXLOZONE MIXTURES WITH PETHOXAMID” (FMC CORPORATION, priority 2022, published 2026).

Columns and labels:
Type in all cases: in vivo
[1] = test system: Tripleurospermum inodorum (MATIN); experiment: pre-emergence control of MATIN in corn (Colby synergy)
Text: (§1) [formula] • where ppm=milligrams of active ingredient (=a.i.) per liter of spray mixture X=% action by component A using p ppm of active ingredient Y=% action by component B using q ppm of active ingredient. If the ratio R defined as the action actually observed (O) divided by the expected action (E) is >1 then the action of the combination is superadditive, i.e. there is a synergistic effect. For a more detailed description of the Colby formula, see Colby, S. R. “Calculating Synergistic and Antagonistic Responses of Herbicide Combination”, Weeds, Vol. 15, pages 20-22; 1967; see also Limpel et al., Proc. NEWCC 16:48-53 (1962).
(§2) The herbicidal compounds bixlozone and pethoxamid were applied in a variety of forms and at a variety of amounts, application rates, and normalities. Efficacy of the herbicidal compositions was evaluated with reference to a scale of 0% to 100% in comparison with untreated control plots. 0 means no damage to the harmful plants and 100 means complete destruction of the harmful plants. Plants per square meter is indicated by “pl/m^2”, and grams per hectare is indicated by “g/ha”. […]

[2] = test system: Echinochloa crus-galli (ECHCG); experiment: pre-emergence control of ECHCG in corn (efficacy, Colby synergy)
Text: as §1
(§3) As used herein, rating timings correspond to the following: A1=weed assessment at BBCH 11-12; A2=4 weeks after the application; A3=when ZEAMX crop reaches BBCH 18 (row closure); and A4=BBCH 51-59 of the ZEAMX crop.
as §2

[3] = test system: Panicum dichotomiflorum (PANDI); experiment: pre-emergence control of PANDI in corn (Colby synergy)
Text: as §1
(§4) The herbicidal compounds bixlozone and pethoxamid were applied in a variety of forms and at a variety of amounts, application rates, and normalities. Efficacy of the herbicidal compositions was evaluated with reference to a scale of 0% to 100% in comparison with untreated control plots. 0 means no damage to the harmful plants and 100 means complete destruction of the harmful plants. Plants per square meter is indicated by “pl/m^2”, and grams per hectare is indicated by “g/ha”. The acronym “EC” means emulsifiable concentrate (a liquid, homogenous formulation to be applied as an emulsion after dilution with water); “SC” means suspension concentrate (a stable suspension of active ingredient(s) with water as the fluid); “ZC” refers to a mixed formulation of CS and SC (a stable suspension of capsules and active ingredient(s) in a fluid, normally intended for dilution with water before use).
(§5) Various forms, compositions, and mixtures of bixlozone and pethoxamid were applied to corn before emergence. […] Mixtures of bixlozone with 1200 g/ha pethoxamid improved weed spectrum on a range of broad leaf weeds (e.g., CHEAL, MATSS, and POLSS) and grasses (e.g., ECHCG, DIGSA, and SETVI). Combinations of bixlozone and pethoxamid in pre-emergence applications were very safe with no clear pethoxamid rate effect.

[4] = test system: Persicaria maculosa (POLPE); experiment: pre-emergence control of POLPE in corn (efficacy, Colby synergy)
Text: as §1, §3, §4
(§6) Various forms, compositions, and mixtures of bixlozone and pethoxamid were applied to corn before emergence. […] There was equivalent efficacy for fixed rate of bixlozone combined with pethoxamid: 1200 or 900 g/ha. Efficacy was reduced when bixlozone rate decreased from 250 to 150 g/ha. […]

[5] = test system: Sorghum halepense (SORHA); experiment: pre-emergence control of SORHA in corn (efficacy, Colby synergy)
Text: as §1, §3, §2

GALAP = experiment: pre-emergence control of GALAP in corn (efficacy, Colby synergy)
Text: Table 10. Synergy data of various forms and mixtures of bixlozone and pethoxamid after pre-emergence application on corn at the crop row closure stage (BBCH 18). […] The notations in parentheses show the forms and amounts (in g/ha) of applied bixlozone and pethoxamid, respectively. Where “tank” is noted, the mix is a tank mix. Where “premix” is noted, the mix is a premix. Where there is no notation, the value shown is the Colby calculation for the expected value from separate mixtures.
(§7) Various forms, compositions, and mixtures of bixlozone and pethoxamid were applied to corn before emergence. […] Mixtures of bixlozone with 800 g/ha pethoxamid improved weed spectrum on a range of broad leaf weeds (e.g., CHEAL and ABUTH) and grasses (e.g., ECHCG, DIGSA, and SETVI). Combinations of bixlozone and pethoxamid in pre-emergence applications were very safe with no clear pethoxamid rate effect.
(§8) Table 12. Efficacies of various forms and mixtures of bixlozone and pethoxamid after pre-emergence application on corn. Weeds were present at ≥5 pl/m^2. Concentrations are shown in parentheses in g/ha.
Various forms, compositions, and mixtures of bixlozone and pethoxamid were applied to corn before emergence. […]

[6] = test system: Chenopodium hybridum (CHEHY); experiment: pre-emergence control of CHEHY in corn (efficacy, Colby synergy); details: bixlozone 375, pethoxamid 300, mixtures 375 + 300 g/ha
Text: as §1, §3, §2

[7] = test system: Amaranthus retroflexus (AMARE); experiment: pre-emergence control of AMARE in corn (efficacy, Colby synergy)
Text: as §1, §3, §2

[8] = test system: Digitaria sanguinalis (DIGSA); experiment: pre-emergence control of DIGSA in corn (efficacy, Colby synergy); details: bixlozone 375, pethoxamid 1200, mixtures 375 + 1200 g/ha
Text: as §1, §3, §2

[9] = test system: Acalypha virginica (ACCVI); experiment: pre-emergence control of ACCVI in corn (Colby synergy)
Text: as §1, §2

CAGSE = experiment: pre-emergence control of CAGSE in corn (efficacy, Colby synergy)
Text: as §5
Table 8. Efficacies of various forms and mixtures of bixlozone and pethoxamid after pre-emergence application on corn. Weeds were present at ≥5 pl/m^2. Concentrations are shown in parentheses in g/ha.
(§9) Table 11. Synergy data of various forms and mixtures of bixlozone and pethoxamid after pre-emergence application on corn at the crop row closure stage (BBCH 18). The notations in parentheses show the forms and amounts (in g/ha) of applied bixlozone and pethoxamid, respectively. Where “tank” is noted, the mix is a tank mix. Where “premix” is noted, the mix is a premix. Where there is no notation, the value shown is the Colby calculation for the expected value from separate mixtures.
(§10) Various forms, compositions, and mixtures of bixlozone and pethoxamid were applied to corn before emergence. […] Mixtures of bixlozone with 300 g/ha pethoxamid improved weed spectrum on a range of broad leaf weeds (e.g., SOLNI and ABUTH). […]

[10] = test system: Fallopia convolvulus (POLCO); experiment: pre-emergence control of POLCO in corn (efficacy, Colby synergy)
Text: as §1, §3, §2

[11] = test system: Convolvulus arvensis (CONAR); experiment: pre-emergence control of CONAR in corn (efficacy, Colby synergy); details: bixlozone 375, pethoxamid 300, mixtures 375 + 300 g/ha
Text: as §1, §3, §2

[12] = test system: Persicaria lapathifolia (POLLA); experiment: pre-emergence control of POLLA in corn (efficacy, Colby synergy)
Text: as §1, §3, §4, §6

[13] = test system: Polygonum aviculare (POLAV); experiment: pre-emergence control of POLAV in corn (Colby synergy); details: bixlozone 375, pethoxamid 1200, mixtures 375 + 1200 g/ha
Text: as §1, §2

Stellaria media (STEME) = experiment: pre-emergence control of STEME in corn (efficacy, Colby synergy); details: bixlozone 375, pethoxamid 800, tank mix 375 + 800, premix 375 + 775 g/ha
Text: as §1, §3, §2

Lamium purpureum (LAMPU) = experiment: pre-emergence control of LAMPU in corn (efficacy, Colby synergy); details: bixlozone 375, pethoxamid 300, mixtures 375 + 300 g/ha
Text: as §1, §3, §2

POLHY = experiment: pre-emergence control of POLHY in corn (efficacy); details: bixlozone 375, pethoxamid 800, tank mix 375 + 800, premix 375 + 775 g/ha
Text: as §7, §8

VERPE = experiment: pre-emergence control of VERPE in corn (efficacy, Colby synergy); details: bixlozone 375, pethoxamid 300, mixtures 375 + 300 g/ha
Text: as §9, §7, §8, §10

[14] = bixlozone 375, pethoxamid 300, mixtures 375 + 300 g/ha
[15] = bixlozone 375, pethoxamid 1200, mixtures 375 + 1200 g/ha
[16] = bixlozone 375, pethoxamid 800, tank mix 375 + 800, premix 375 + 775 g/ha

CCOCCN(C(=O)CCl)C(=C(C)C)c1ccccc1 [pethoxamid]
Efficacy [1, 14]: 50
Efficacy [1, 15]: 100
Efficacy [2, 14]: 48.4
Efficacy [2, 15]: 85.5
Efficacy [3, 14]: 68.8
Efficacy [3, 16]: 71.3
Efficacy [3, 15]: 84.8
Efficacy [4, 14]: 45.5
Efficacy [4, 16]: 61.8
Efficacy [4, 15]: 62.5
Efficacy [5, 16]: 80
Efficacy [5, 15]: 27.5
Efficacy (GALAP; [14]): 7.5
Efficacy (GALAP; [16]): 7.5
Efficacy [6]: 0
Efficacy [7, 16]: 50.4
Efficacy [7, 15]: 57.5
Efficacy [8]: 82
Efficacy [9, 14]: 65
Efficacy [9, 15]: 46.3
Efficacy (CAGSE; [14]): 10
Efficacy (CAGSE; [15]): 0
Efficacy [10, 16]: 1.3
Efficacy [10, 15]: 12.1
Efficacy [11]: 39.6
Efficacy [12, 14]: 42.2
Efficacy [12, 16]: 49.3
Efficacy [12, 15]: 87.8
Efficacy [13]: 77.5
Efficacy (Stellaria media (STEME)): 91
Efficacy (Lamium purpureum (LAMPU)): 62.5
Efficacy (POLHY): 92.5
Efficacy (VERPE): 46.3
